“And” between values parts separate entries of the source, which are not always exact repeats. Equal entries are not always repeated. Inconclusive results and toxic doses are left out.

For this test, the system named is CD2F1 mice, L1210 leukemia ip, survival T/C. Put plainly: NCI In Vivo Anticancer Drug Screen. Data for tumor model L1210 Leukemia (intraperitoneal) in CD2F1 (CDF1) mice. The conditions noted are these: higher = longer survival. The gist of the method:
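Mice carrying a transplanted tumor received test compound or vehicle alone. The value is the measurement in the treated group divided by that in the vehicle-treated control group.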

The mark [1] stands for this setting: endpoint: mean survival time, dose: 100.0 mg/kg/injection, schedule: Q04DX003 (ip), vehicle: saline with Tween-80.
[2] abbreviates: endpoint: mean survival time, dose: 200.0 mg/kg/injection, schedule: Q04DX003 (ip), vehicle: saline with Tween-80.
Where [3] appears, read: endpoint: mean survival time, dose: 400.0 mg/kg/injection, schedule: Q04DX003 (ip), vehicle: saline with Tween-80.
Setting [4] is: endpoint: mean survival time, dose: 75.0 mg/kg/injection, schedule: Q01DX001 (ip), vehicle: saline.
Where [5] appears, read: endpoint: mean survival time, dose: 150.0 mg/kg/injection, schedule: Q01DX001 (ip), vehicle: saline.

As for `O=c1[nH]c2c(ncn2C2OC3COP(=O)(O)OC3C2O)c2nccn12` (stereo not given), the T/C by setting is: (endpoint: mean survival time, dose: 12.5 mg/kg/injection, schedule: Q01DX005 (ip), vehicle: distilled water + Tween-80) 97 % of control; (endpoint: mean survival time, dose: 25.0 mg/kg/injection, schedule: Q01DX005 (ip), vehicle: distilled water + Tween-80) 97 % of control; (endpoint: mean survival time, dose: 50.0 mg/kg/injection, schedule: Q01DX005 (ip), vehicle: distilled water + Tween-80) 97 % of control; (endpoint: mean survival time, dose: 100.0 mg/kg/injection, schedule: Q01DX005 (ip), vehicle: distilled water + Tween-80) 100 % of control.
Regarding `Clc1c(Br)nc(Br)nc1C(Cl)(Cl)Cl`, the T/C is, setting by setting: (endpoint: mean survival time, dose: 6.25 mg/kg/injection, schedule: Q04DX003 (ip), vehicle: saline with Tween-80) 98 % of control; (endpoint: mean survival time, dose: 12.5 mg/kg/injection, schedule: Q04DX003 (ip), vehicle: saline with Tween-80) 98 % of control; (endpoint: mean survival time, dose: 25.0 mg/kg/injection, schedule: Q04DX003 (ip), vehicle: saline with Tween-80) 98 % of control.
Consider `O=C1CSC(=O)N1` (tested in a mixture with another compound), for which the T/C is 96 % of control (endpoint: mean survival time, dose: 100.0 mg/kg/injection, schedule: Q01DX001 (ip), vehicle: saline); 96 % of control (endpoint: mean survival time, dose: 200.0 mg/kg/injection, schedule: Q01DX001 (ip), vehicle: saline); 107 % of control (endpoint: mean survival time, dose: 400.0 mg/kg/injection, schedule: Q01DX001 (ip), vehicle: saline).
Regarding `CN1CCN(c2ccccc2N)CC1`, the T/C by setting is: (endpoint: mean survival time, dose: 5.0 mg/kg/injection, schedule: Q01DX009 (ip), vehicle: saline with Tween-80) 108 % of control; (endpoint: mean survival time, dose: 10.0 mg/kg/injection, schedule: Q01DX009 (ip), vehicle: saline with Tween-80) 108 % of control; (endpoint: mean survival time, dose: 20.0 mg/kg/injection, schedule: Q01DX009 (ip), vehicle: saline with Tween-80) 102 % of control.
With `Cc1cccc(OCCOC(=O)Nc2cccc(C(F)(F)F)c2)c1`, the T/C runs as follows: (endpoint: mean survival time, dose: 90.0 mg/kg/injection, schedule: Q01DX009 (ip), vehicle: acetone) 101 % of control; (endpoint: mean survival time, dose: 180.0 mg/kg/injection, schedule: Q01DX009 (ip), vehicle: acetone) 103 % of control; (endpoint: mean survival time, dose: 360.0 mg/kg/injection, schedule: Q01DX009 (ip), vehicle: acetone) 101 % of control.
Turning to `CCC(=O)Nc1ccccc1Cl`, the T/C was 103 % of control under setting [1], 100 % of control under setting [2] and 100 % of control under setting [3].
With `CCC/C=C\CC(C)C(C)CC` (stereo not given), the T/C runs as follows: (endpoint: mean survival time, dose: 100.0 mg/kg/injection, schedule: Q04DX003 (ip), vehicle: saline) 101 % of control; (endpoint: mean survival time, dose: 200.0 mg/kg/injection, schedule: Q04DX003 (ip), vehicle: saline) 108 % of control; (endpoint: mean survival time, dose: 400.0 mg/kg/injection, schedule: Q04DX003 (ip), vehicle: saline) 104 % of control.
Turning to `CCOC(=O)NC(=O)/C=C/N1CCCC1`, the T/C reads like this: (endpoint: mean survival time, dose: 50.0 mg/kg/injection, schedule: Q01DX009 (ip), vehicle: saline) 102 % of control; (endpoint: mean survival time, dose: 100.0 mg/kg/injection, schedule: Q01DX009 (ip), vehicle: saline) 97 % of control; (endpoint: mean survival time, dose: 200.0 mg/kg/injection, schedule: Q01DX009 (ip), vehicle: saline) 94 % of control.
In the case of `CC(=O)CC(=O)Nc1cccc(Br)c1`, the T/C was 98 % of control (endpoint: mean survival time, dose: 100.0 mg/kg/injection, schedule: Q01DX009 (ip), vehicle: saline with Tween-80); 101 % of control (endpoint: mean survival time, dose: 200.0 mg/kg/injection, schedule: Q01DX009 (ip), vehicle: saline with Tween-80); 101 % of control (endpoint: mean survival time, dose: 400.0 mg/kg/injection, schedule: Q01DX009 (ip), vehicle: saline with Tween-80).
Turning to `O=C1c2cccc3cc([N+](=O)[O-])cc(c23)C(=O)N1CCN1CCCC1`, the T/C reads like this: (endpoint: mean survival time, dose: 1.5 mg/kg/injection, schedule: Q01DX009 (ip), vehicle: saline with Tween-80) 107 % of control; (endpoint: mean survival time, dose: 1.5 mg/kg/injection, schedule: Q01DX009 (ip), vehicle: saline) 100 % of control; (endpoint: mean survival time, dose: 3.0 mg/kg/injection, schedule: Q01DX009 (ip), vehicle: saline with Tween-80) 113 % of control; (endpoint: mean survival time, dose: 3.0 mg/kg/injection, schedule: Q01DX009 (ip), vehicle: saline) 100 % of control; (endpoint: mean survival time, dose: 6.0 mg/kg/injection, schedule: Q01DX009 (ip), vehicle: saline) 113 % of control; (endpoint: mean survival time, dose: 12.0 mg/kg/injection, schedule: Q01DX009 (ip), vehicle: saline) 115 % of control. Besides, the T/C by setting is: (endpoint: mean survival time, dose: 24.0 mg/kg/injection, schedule: Q01DX009 (ip), vehicle: saline with Tween-80) 91 % of control; (endpoint: mean survival time, dose: 24.0 mg/kg/injection, schedule: Q01DX009 (ip), vehicle: saline) 111 % of control; (endpoint: median survival time, dose: 1.56 mg/kg/injection, schedule: Q01DX009 (ip), vehicle: saline with Tween-80) 96 % of control; (endpoint: median survival time, dose: 3.12 mg/kg/injection, schedule: Q01DX009 (ip), vehicle: saline with Tween-80) 101 % of control and 107 % of control; (endpoint: median survival time, dose: 6.25 mg/kg/injection, schedule: Q01DX009 (ip), vehicle: saline with Tween-80) 104 % of control and 107 % of control; (endpoint: median survival time, dose: 12.5 mg/kg/injection, schedule: Q01DX009 (ip), vehicle: saline with Tween-80) 117 % of control and 119 % of control. Also, under “endpoint: median survival time, dose: 50.0 mg/kg/injection, schedule: Q01DX009 (ip), vehicle: saline with Tween-80”, the T/C is 86 % of control.
Turning to `Nc1nc(F)nc2c1ncn2C1CC(O)C(CO)O1` (stereo not given), the T/C under setting [4] was 105 % of control; the T/C (endpoint: mean survival time, dose: 100.0 mg/kg/injection, schedule: Q01DX001 (ip), vehicle: other) is 113 % of control; the T/C under setting [5] was 109 % of control; the T/C (endpoint: mean survival time, dose: 200.0 mg/kg/injection, schedule: Q01DX001 (ip), vehicle: other) was 110 % of control; the T/C (endpoint: mean survival time, dose: 400.0 mg/kg/injection, schedule: Q01DX001 (ip), vehicle: other) is 107 % of control; the T/C (endpoint: median survival time, dose: 25.0 mg/kg/injection, schedule: Q03HX024 (ip), vehicle: saline with Tween-80) was 219 % of control. Besides, the T/C (endpoint: median survival time, dose: 30.0 mg/kg/injection, schedule: Q03HX024 (ip), vehicle: saline with Tween-80) was 234 % of control; the T/C (endpoint: median survival time, dose: 30.0 mg/kg/injection, schedule: Q03HX024 (ip), vehicle: saline) is 211 % of control; the T/C (endpoint: median survival time, dose: 35.0 mg/kg/injection, schedule: Q03HX024 (ip), vehicle: saline with Tween-80) was 250 % of control; the T/C (endpoint: median survival time, dose: 40.0 mg/kg/injection, schedule: Q03HX024 (ip), vehicle: saline with Tween-80) is 158 % of control; the T/C (endpoint: median survival time, dose: 40.0 mg/kg/injection, schedule: Q03HX024 (ip), vehicle: saline) is 227 % of control.
In the case of `CCOc1c[n+](C)c(C)s1`, the T/C was 94 % of control (endpoint: mean survival time, dose: 50.0 mg/kg/injection, schedule: Q01DX001 (ip), vehicle: carboxymethylcellulose (CMC)); 92 % of control (endpoint: mean survival time, dose: 100.0 mg/kg/injection, schedule: Q01DX001 (ip), vehicle: carboxymethylcellulose (CMC)); 103 % of control (endpoint: mean survival time, dose: 200.0 mg/kg/injection, schedule: Q01DX001 (ip), vehicle: carboxymethylcellulose (CMC)).
Consider `CCN(CC)CCN(C)C(O)(C(=O)c1ccccc1)C1CCCCC1` (stereo not given), for which the T/C runs as follows: under setting [4], 105 % of control; under setting [5], 102 % of control; (endpoint: mean survival time, dose: 300.0 mg/kg/injection, schedule: Q01DX001 (ip), vehicle: saline) 100 % of control.
For the molecule `On1ccc(=S)c2ccccc21`, the T/C by setting is: under setting [1], 102 % of control; under setting [2], 96 % of control; under setting [3], 102 % of control.
Regarding `COc1ccc2ccccc2c1C1/C(=N/O)CCc2ccccc21` (stereo not given), the T/C is 98 % of control (endpoint: mean survival time, dose: 12.5 mg/kg/injection, schedule: Q01DX009 (ip), vehicle: other); 94 % of control (endpoint: mean survival time, dose: 25.0 mg/kg/injection, schedule: Q01DX009 (ip), vehicle: other); 98 % of control (endpoint: mean survival time, dose: 50.0 mg/kg/injection, schedule: Q01DX009 (ip), vehicle: other); 98 % of control (endpoint: mean survival time, dose: 100.0 mg/kg/injection, schedule: Q01DX009 (ip), vehicle: other); 96 % of control (endpoint: mean survival time, dose: 200.0 mg/kg/injection, schedule: Q01DX009 (ip), vehicle: other).
Turning to `N/N=C(\NN)c1ccccc1`, the T/C is 92 % of control under setting [1], 87 % of control under setting [2] and 92 % of control under setting [3].
Regarding `COc1ccc(CCNC(=O)Cc2ccc3c(c2)OCO3)cc1OC`, the T/C reads like this: (endpoint: mean survival time, dose: 100.0 mg/kg/injection, schedule: Q01DX001 (ip), vehicle: saline with Tween-80) 92 % of control; (endpoint: mean survival time, dose: 100.0 mg/kg/injection, schedule: Q04DX002 (ip), vehicle: saline with Tween-80) 87 % of control; (endpoint: mean survival time, dose: 200.0 mg/kg/injection, schedule: Q01DX001 (ip), vehicle: saline with Tween-80) 93 % of control; (endpoint: mean survival time, dose: 200.0 mg/kg/injection, schedule: Q04DX002 (ip), vehicle: saline with Tween-80) 97 % of control; (endpoint: mean survival time, dose: 400.0 mg/kg/injection, schedule: Q01DX001 (ip), vehicle: saline with Tween-80) 94 % of control; (endpoint: mean survival time, dose: 400.0 mg/kg/injection, schedule: Q04DX002 (ip), vehicle: saline with Tween-80) 93 % of control.
